Data published in US20070031872A1, “A141S and G399S mutation in the Omi/HtrA2 protein in Parkinson's disease” (priority 2004, published 2007).
Peptide text beside a SMILES is read from it. * marks the point of attachment. Cbz = O=C(OCc1ccccc1)*

Key:
Assay type in all cases: cell-based
[1] = tested on: HEK293 cells which expressed the exon 1, i.e. G421T, mutation (A141S) of Omi/HtrA2; assay: Cytotoxicity test (LDH release) using MG132; conditions: 3.0 μM MG132, 24 hours; A141S cells vs wild-type HEK293 cells; FIG. 8
Experimental: (§1) In order to analyze the pathogenetic relevance of the two mutations found in the Omi/HtrA2 gene, the cytotoxicity test was used to investigate whether cells which express the correspondingly genetically modified Omi/HtrA2 protein are more sensitive to cytotoxins, i.e. undergo apoptosis more frequently with corresponding exposure.
(§2) This test was carried out using the cytotoxicity detection kit (LDH) supplied by Roche. The measure of apoptosis used in this case is the lactate dehydrogenase (LDH) released from the cytosol of the apoptotic cells into the surrounding medium after contact with the toxins. This LDH in turn is determined via conversion of a tetrazolium salt into formazan, which can be measured through a change in color from yellow (tetrazolium salt) to red (formazan) using an ELISA reader at a wavelength of 490 nm. The absorption at 650 nm is measured as reference comparison. […]
(§3) In order to detect the total amount of LDH, which is related to the total number of cells per well, then 50 μl of 10% Triton X-100 solution were pipetted into each well in order to lyse the cells which were still alive. […] 100 μl of LDH assay medium were then put in each well to be measured of the 96-well plate and incubated at room temperature for 20 minutes.
(§4) After this incubation time had elapsed, the reaction was stopped by adding 50 μl of 1 N HCl (Sigma) and measured using the ELISA reader. […]

[2] = tested on: SH-SY5Y cells which stably express mutated (S141 or S399) Omi/HtrA2; assay: Mitochondrion function test: mitochondrial membrane potential by JC-1 FACS analysis; conditions: 0.5 μM staurosporin, 4 hours, FIG. 9
Experimental: The mitochondrial membrane potential was measured by FACS analysis (flow cytometer) using JC-1, as marker of mitochondrial homeostasis in SH-SY5Y cells which stably express the wild-type or mutated (S141 or S399) Omi/HtrA2.
JC-1 is a green fluorescent dye which can be employed to measure the mitochondrial membrane potential. It has the property of diffusing through cellular membranes and is moreover in the form of a monomer which fluoresces green on excitation with a 488 nm laser. In intact mitochondria there is accumulation of the dye owing to the mitochondrial membrane potential, and thus JC-1 aggregates form. The aggregate now re-emits in a red fluorescent wavelength the excitation light and can thus be clearly distinguished both under a microscope and in a flow cytometer from the green fluorescent monomers. […]
In order to differentiate the cell population between green and red fluorescence and to make the adjustment in the flow cytometer, cells without JC-1, with JC-1 and cells with JC-1 treated with CCCP were used. […] It was thus possible after the staining readily to excite only the green fluorescence of the JC-1 monomers, owing to treatment with CCCP. After adjustment of the assay in the flow cytometer, the samples were then measured and evaluated. […]

[3] = tested on: HEK293 cells which expressed the exon 7, i.e. the G1195A, mutation (G399S) of Omi/HtrA2; assay: Cytotoxicity test (LDH release) using staurosporin; conditions: 0.5 μM staurosporin, 6 hours; G399S cells vs wild-type HEK293 cells; FIG. 7
Experimental: as §1, §2, §3, §4

| Compound | sensitivity to MG132 relative to wild-type HEK293 cells (LDH release, proportion of dead cells) [1] | decline in the mitochondrial membrane potential (ΔΨm loss) compared with wild-type cells ([2]; Omi/HtrA2 S141 cells) | decline in the mitochondrial membrane potential (ΔΨm loss) compared with wild-type cells ([2]; Omi/HtrA2 S399 cells) | sensitivity to staurosporin relative to wild-type HEK293 cells (LDH release, proportion of dead cells) [3] |
| --- | --- | --- | --- | --- |
| CC(C)C[C@@H](C=O)NC(=O)[C@H](CC(C)C)NC(=O)[C@H](CC(C)C)NC(=O)OCc1ccccc1 [MG132] (Cbz-Leu-Leu-Leu-aldehyde) | approximately 1.4 times | – | – | – |
| CN[C@@H]1C[C@H]2O[C@@](C)([C@@H]1OC)n1c3ccccc3c3c4c(c5c6ccccc6n2c5c31)C(=O)NC4 [staurosporin] | – | distinct decline in the mitochondrial membrane potential | distinct decline in the mitochondrial membrane potential | more than five times more sensitive |
